For 21 molecules, IC50 results are on record in patent US10556883B2, “Benzenesulfonamide compounds, method for synthesizing same, and use thereof in medicine and cosmetics” (GALDERMA RESEARCH & DEVELOPMENT, priority 2016, dated 2020).

The test system of the test is TNFα secretion from LPS stimulated frozen Peripheral Blood Mononuclear Cells (PBMC). As to the kind of experiment: inhibition of TNFα secretion from LPS stimulated human PBMC (hPBMC assay). Type of test: cell-based. The settings on record: LPS 1 μg/mL, overnight incubation, TNFα by HTRF. On the procedure:
Activity of the compounds was investigated using human peripheral blood mononuclear cells (hPBMC). This assay was designed to measure the inhibition of the TNFα secretion from LPS stimulated frozen Peripheral Blood Mononuclear Cells (PBMC) isolated from human blood. TNFα levels were measured using HTRF® Human TNFα kit (Cisbio #62TNFPEC) which is a rapid and quantitative sandwich immunoassay based on TR-FRET technology.
Frozen PBMC were quickly thawed, resuspended in culture medium (RPMI 10% inactivated FBS) and viable cells were seeded in 96-well plates (50,000 cells/well). […] After overnight incubation at 37° C., 10 μL of cell supernatant were mixed with 5 μL of each tagged anti-TNFα specific antibody as recommended by the supplier. After 2 hours of incubation at room temperature, the HTRF® signals were measured using a microplate reader (wavelengths: excitation=337 nm, first emission=620 nm, second emission=665 nm).
`COCCN(C1(C(=O)NO)CN(C(=O)C(C)C)C1)S(=O)(=O)c1ccc(OCc2cc(C)nc3ccccc23)cc1` [Example 22, N-hydroxy-1-isobutyryl-3-((N-(2-methoxyethyl)-4-((2-methylquinolin-4-yl)methoxy)phenyl)sulfonamido)azetidine-3-carboxamide] yielded a 50% inhibitory concentration (IC50) below 50 nM. `C=CCOC(=O)N1CC(CC(=O)NO)(NS(=O)(=O)c2ccc(OCc3cc(C)nc4ccccc34)cc2)C1` [Example 5c, allyl 3-(2-(hydroxyamino)-2-oxoethyl)-3-((4-((2-methylquinolin-4-yl)methoxy)phenyl)sulfonamido)azetidine-1-carboxylate]: the IC50 was below 50 nM.

`Cc1cc(COc2ccc(S(=O)(=O)NC3(C(=O)NO)CN(C(=O)N4CCN(C)CC4)C3)cc2)c2ccccc2n1` [Example 16c, N-hydroxy-1-(4-methylpiperazine-1-carbonyl)-3-((4-((2-methylquinolin-4-yl)methoxy)phenyl)sulfonamido)azetidine-3-carboxamide] gave an IC50 below 50 nM. For `Cc1cc(COc2ccc(S(=O)(=O)NC3(CC(=O)NO)CN(C(=O)C4CCOCC4)C3)cc2)c2ccccc2n1` [Example 4g, N-hydroxy-2-(3-((4-((2-methylquinolin-4-yl)methoxy)phenyl)sulfonamido)-1-(tetrahydro-2H-pyran-4-carbonyl)azetidin-3-yl)acetamide] the value was below 50 nM. In the case of `Cc1cc(COc2ccc(S(=O)(=O)NC3(C(=O)NO)CN(C(=O)C(C)(C)C)C3)cc2)c2ccccc2n1` [Example 7a, N-hydroxy-3-((4-((2-methylquinolin-4-yl)methoxy)phenyl)sulfonamido)-1-pivaloylazetidine-3-carboxamide], the IC50 was 50 to 100 nM. The same measure for `Cc1cc(COc2ccc(S(=O)(=O)N(C)C3(C(=O)NO)CN(C(=O)C4CCOCC4)C3)cc2)c2ccccc2n1` [Example 19c, N-hydroxy-3-((N-methyl-4-((2-methylquinolin-4-yl)methoxy)phenyl)sulfonamido)-1-(tetrahydro-2H-pyran-4-carbonyl)azetidine-3-carboxamide]: below 50 nM.

For `Cc1cc(COc2ccc(S(=O)(=O)NC3(C(=O)NO)CN(C(=O)C4CCOCC4)C3)cc2)c2ccccc2n1` [Example 7d, N-hydroxy-3-((4-((2-methylquinolin-4-yl)methoxy)phenyl)sulfonamido)-1-(tetrahydro-2H-pyran-4-carbonyl)azetidine-3-carboxamide], the concentration for half-maximal inhibition (IC50) is below 50 nM.

Take `CCC(CC)C(=O)N1CC(C(=O)NO)(N(C)S(=O)(=O)c2ccc(OCc3cc(C)nc4ccccc34)cc2)C1` [Example 19b, 1-(2-ethylbutanoyl)-N-hydroxy-3-((N-methyl-4-((2-methylquinolin-4-yl)methoxy)phenyl)sulfonamido)azetidine-3-carboxamide]: the IC50 was in the range of 50 to 100 nM. The same measure for `Cc1cc(COc2ccc(S(=O)(=O)NC3(CC(=O)NO)CN(C(=O)C(C)(C)C)C3)cc2)c2ccccc2n1` [Example 4d, N-hydroxy-2-(3-((4-((2-methylquinolin-4-yl)methoxy)phenyl)sulfonamido)-1-pivaloylazetidin-3-yl)acetamide]: below 50 nM; for `Cc1cc(COc2ccc(S(=O)(=O)NC3(CC(=O)NO)CN(C(=O)OC(C)(C)C)C3)cc2)c2ccccc2n1` [Example 2, Tert-butyl 3-(2-(hydroxyamino)-2-oxoethyl)-3-((4-((2-methylquinolin-4-yl)methoxy)phenyl)sulfonamido)azetidine-1-carboxylate]: below 50 nM; for `Cc1cc(COc2ccc(S(=O)(=O)NC3(CC(=O)NO)CN(C(=O)C(C)C)C3)cc2)c2ccccc2n1` [Example 4b, N-hydroxy-2-(1-isobutyryl-3-((4-((2-methylquinolin-4-yl)methoxy)phenyl)sulfonamido)azetidin-3-yl)acetamide]: below 50 nM. For `Cc1cc(COc2ccc(S(=O)(=O)N(C(C)C)C3(C(=O)NO)CN(C(=O)C(C)C)C3)cc2)c2ccccc2n1` [Example 23, N-hydroxy-1-isobutyryl-3-((N-isopropyl-4-((2-methylquinolin-4-yl)methoxy)phenyl)sulfonamido)azetidine-3-carboxamide] the value was 500 to 1000 nM; for `CCN(C1(C(=O)NO)CN(C(=O)C2CCOCC2)C1)S(=O)(=O)c1ccc(OCc2cc(C)nc3ccccc23)cc1` [Example 21b, 3-((N-ethyl-4-((2-methylquinolin-4-yl)methoxy)phenyl)sulfonamido)-N-hydroxy-1-(tetrahydro-2H-pyran-4-carbonyl)azetidine-3-carboxamide], 50 to 100 nM.

`Cc1cc(COc2ccc(S(=O)(=O)NC3(C(=O)NO)CN(C(=O)N4CCCCC4)C3)cc2)c2ccccc2n1` [Example 16a, N-hydroxy-3-((4-((2-methylquinolin-4-yl)methoxy)phenyl)sulfonamido)-1-(piperidine-1-carbonyl)azetidine-3-carboxamide]: the IC50 was 50 to 100 nM. For `Cc1cc(COc2ccc(S(=O)(=O)NC3(C(=O)NO)CN(C(=O)N4CCOCC4)C3)cc2)c2ccccc2n1` [Example 16b, N-hydroxy-3-((4-((2-methylquinolin-4-yl)methoxy)phenyl)sulfonamido)-1-(morpholine-4-carbonyl)azetidine-3-carboxamide] the value was below 50 nM. For `CCC(CC)C(=O)N1CC(CC(=O)NO)(NS(=O)(=O)c2ccc(OCc3cc(C)nc4ccccc34)cc2)C1` [Example 4i, 2-(1-(2-ethylbutanoyl)-3-((4-((2-methylquinolin-4-yl)methoxy)phenyl)sulfonamido)azetidin-3-yl)-N-hydroxyacetamide] the value was below 50 nM. The same measure for `CCCC(=O)N1CC(CC(=O)NO)(NS(=O)(=O)c2ccc(OCc3cc(C)nc4ccccc34)cc2)C1` [Example 4e, 2-(1-butyryl-3-((4-((2-methylquinolin-4-yl)methoxy)phenyl)sulfonamido)azetidin-3-yl)-N-hydroxyacetamide]: below 50 nM; for `CCC(=O)N1CC(NS(=O)(=O)c2ccc(OCc3cc(C)nc4ccccc34)cc2)(C(=O)NO)C1` [Example 7g, N-hydroxy-3-((4-((2-methylquinolin-4-yl)methoxy)phenyl)sulfonamido)-1-propionylazetidine-3-carboxamide]: below 50 nM. `CC(=O)N1CC(CC(=O)NO)(N(C)S(=O)(=O)c2ccc(OCc3cc(C)nc4ccccc34)cc2)C1` [Example 3, 2-(1-acetyl-3-((N-methyl-4-((2-methylquinolin-4-yl)methoxy)phenyl)sulfonamido)azetidin-3-yl)-N-hydroxyacetamide] yielded an IC50 of 500 to 1000 nM. `Cc1cc(COc2ccc(S(=O)(=O)NC3(C(=O)NO)CN(C(=O)C4CC(F)(F)C4)C3)cc2)c2ccccc2n1` [Example 26e, 1-(3,3-difluorocyclobutane-1-carbonyl)-N-hydroxy-3-((4-((2-methylquinolin-4-yl)methoxy)phenyl)sulfonamido)azetidine-3-carboxamide] showed a concentration for half-maximal inhibition (IC50) below 50 nM. In turn, `CO[C@H]1C[C@H](C(=O)N2CC(NS(=O)(=O)c3ccc(OCc4cc(C)nc5ccccc45)cc3)(C(=O)NO)C2)C1` [Example 26a, N-hydroxy-1-((1r,3r)-3-methoxycyclobutane-1-carbonyl)-3-((4-((2-methylquinolin-4-yl)methoxy)phenyl)sulfonamido)azetidine-3-carboxamide] came in with an IC50 below 50 nM.
